Measurements taken from patent US20180188224A1, “METHOD FOR CONSTRUCTING A SENSORY SPACE” (CENTRE SCIENTIFIQUE ET TECHNIQUE DU BATIMENT (CSTB), priority 2015, published 2018).

How the values were obtained:
[1] = test system: four non-smoking volunteers (2 men and 2 women); experiment: Taste identification questionnaire, trained panel (count of 6 repetitions per subject in which the stimulus was given each taste label; level of recognition %); assay type: in vivo, human; details: for Level of Recognition %: Bitter / Level of Recognition %: Neutral / Level of Recognition %: Salty / Level of Recognition %: Sour / Level of Recognition %: Sweet: four subjects
Experimental: (§1) In this test, four non-smoking volunteers (2 men and 2 women) were chosen from 12 people for their performance in taste recognition. Their mean age was 32 years, ranging from 24 to 40 years. […] These four people were trained for several months to recognize and detect the four basic tastes, and also regarding the procedures of sensory and physiological analysis.
(§2) The four basic tastes (sweet, salty, sour and bitter) were used. The solutions were prepared with citric acid for the sour taste, caffeine for the bitter taste, sodium chloride for the salty taste and sucrose for the sweet taste (all purchased from Sigma Aldrich, France) in Evian water. Evian water was also used as control and blank. Each taste was prepared with the four concentrations mentioned in table 1.
(§3) The amount of solution to be tested was standardized at 10 ml. In order to impregnate the whole of the oral cavity, the subjects kept the solution in their mouth for 5 s before swallowing it.
(§4) The sessions were individual and the subjects were asked not to eat or drink anything for at least 1 h before the test. They arrived 15 min before the start of the session in order to acclimatize to the environmental conditions, in particular the temperature of the room (kept constant at 23° C.) and to be resting seated on a comfortable chair. The 16 solutions for testing and two additional samples of water containing solely Evian water, added to the references, were presented monadically following a test order determined from a “balanced incomplete block design”. During a session, 9 samples out of 18 were presented to minimize sensory fatigue. In addition, a sample of Evian was always tested as a “blank” sample in order to avoid the first-order effect (Lawless, H. T. & Heymann, H., 2010, Sensory evaluation of food: Principles and practices. Springer, New York) and was excluded from the analysis. A light signal was sent to give the instruction to test the sample. When the disturbance to the nervous system returned to its baseline level (after approximately 1 min), a second light signal indicated to the subjects that they should complete a questionnaire regarding the stimulus tested previously. The first part of the questionnaire was linked to the identification of the taste (i.e. determining the quality of the taste); the subjects had to choose between five labels: sweet, salty, sour, bitter or neutral. They then had to assign a taste intensity score on an 11-point scale (from 0 “not intense” (i.e. taste of Evian only) to 10 “very intense”) and finally to give a hedonic score on an 11-point scale (from 0 “very unpleasant” to 10 “very pleasant”, 5 being “neutral”).
(§5) This procedure was repeated for each of the 9 stimuli. A session lasted approximately 45 min including a debriefing at the end of the test to ensure understanding of the sense of the signal variations. The experiment was repeated 12 times per subject, meaning that the data are composed of 6 data sets per subject and per product and 12 data sets for the Evian product per subject. Thus, the database consists of 432 samples.

[2] = test system: four non-smoking volunteers (2 men and 2 women); experiment: Taste intensity score, 11-point scale (0 not intense to 10 very intense); assay type: in vivo, human; details: averaged over 4 subjects, 6 repetitions each
Experimental: as §1, §2, §3, §4, §5
The effect of the taste on the hedonic and intensity scores was analyzed by an analysis of variance (ANOVA) including the product effect, the subject effect and the product-subject interaction. The subject effect was fixed because there were only 4 subjects and the results could only be applied to a particular schema. The differences were considered to be significant at a level of 0.05.

O=C(O)CC(O)(CC(=O)O)C(=O)O [Citric acid, citric acid]
6: Individual recognition score: Sour ([1]; Subject 1, dilution 3) | Individual recognition score: Sour ([1]; Subject 1, dilution 4) | Individual recognition score: Sour ([1]; Subject 2, dilution 3) | Individual recognition score: Sour ([1]; Subject 2, dilution 4) | Individual recognition score: Sour ([1]; Subject 3, dilution 3) | Individual recognition score: Sour ([1]; Subject 3, dilution 4) | Individual recognition score: Sour ([1]; Subject 4, dilution 3) | Individual recognition score: Sour ([1]; Subject 4, dilution 4)
8.4±1.2: intensity score ([2]; concentration 4)
2: Individual recognition score: Sour ([1]; Subject 2, dilution 2) | Individual recognition score: Bitter ([1]; Subject 3, dilution 1) | Individual recognition score: Neutral ([1]; Subject 4, dilution 1)
13%: Level of Recognition %: Sour ([1]; dilution 1)
100%: Level of Recognition %: Sour ([1]; dilution 3) | Level of Recognition %: Sour ([1]; dilution 4)
0: Individual recognition score: Salty ([1]; Subject 1, dilution 1) | Individual recognition score: Salty ([1]; Subject 1, dilution 2) | Individual recognition score: Sweet ([1]; Subject 1, dilution 2) | Individual recognition score: Bitter ([1]; Subject 1, dilution 3) | Individual recognition score: Neutral ([1]; Subject 1, dilution 3) | Individual recognition score: Salty ([1]; Subject 1, dilution 3) | Individual recognition score: Sweet ([1]; Subject 1, dilution 3) | Individual recognition score: Bitter ([1]; Subject 1, dilution 4) | Individual recognition score: Neutral ([1]; Subject 1, dilution 4) | Individual recognition score: Salty ([1]; Subject 1, dilution 4) | Individual recognition score: Sweet ([1]; Subject 1, dilution 4) | Individual recognition score: Bitter ([1]; Subject 2, dilution 1) | Individual recognition score: Salty ([1]; Subject 2, dilution 1) | Individual recognition score: Sour ([1]; Subject 2, dilution 1) | Individual recognition score: Bitter ([1]; Subject 2, dilution 2) | Individual recognition score: Salty ([1]; Subject 2, dilution 2) | Individual recognition score: Bitter ([1]; Subject 2, dilution 3) | Individual recognition score: Neutral ([1]; Subject 2, dilution 3) | Individual recognition score: Salty ([1]; Subject 2, dilution 3) | Individual recognition score: Sweet ([1]; Subject 2, dilution 3) | Individual recognition score: Bitter ([1]; Subject 2, dilution 4) | Individual recognition score: Neutral ([1]; Subject 2, dilution 4) | Individual recognition score: Salty ([1]; Subject 2, dilution 4) | Individual recognition score: Sweet ([1]; Subject 2, dilution 4) | Individual recognition score: Salty ([1]; Subject 3, dilution 1) | Individual recognition score: Sweet ([1]; Subject 3, dilution 1) | Individual recognition score: Salty ([1]; Subject 3, dilution 2) | Individual recognition score: Sweet ([1]; Subject 3, dilution 2) | Individual recognition score: Bitter ([1]; Subject 3, dilution 3) | Individual recognition score: Neutral ([1]; Subject 3, dilution 3) | Individual recognition score: Salty ([1]; Subject 3, dilution 3) | Individual recognition score: Sweet ([1]; Subject 3, dilution 3) | Individual recognition score: Bitter ([1]; Subject 3, dilution 4) | Individual recognition score: Neutral ([1]; Subject 3, dilution 4) | Individual recognition score: Salty ([1]; Subject 3, dilution 4) | Individual recognition score: Sweet ([1]; Subject 3, dilution 4) | Individual recognition score: Salty ([1]; Subject 4, dilution 1) | Individual recognition score: Sweet ([1]; Subject 4, dilution 1) | Individual recognition score: Salty ([1]; Subject 4, dilution 2) | Individual recognition score: Sweet ([1]; Subject 4, dilution 2) | Individual recognition score: Bitter ([1]; Subject 4, dilution 3) | Individual recognition score: Neutral ([1]; Subject 4, dilution 3) | Individual recognition score: Salty ([1]; Subject 4, dilution 3) | Individual recognition score: Sweet ([1]; Subject 4, dilution 3) | Individual recognition score: Bitter ([1]; Subject 4, dilution 4) | Individual recognition score: Neutral ([1]; Subject 4, dilution 4) | Individual recognition score: Salty ([1]; Subject 4, dilution 4) | Individual recognition score: Sweet ([1]; Subject 4, dilution 4)
25%: Level of Recognition %: Bitter ([1]; dilution 1) | Level of Recognition %: Bitter ([1]; dilution 2)
4: Individual recognition score: Neutral ([1]; Subject 1, dilution 2) | Individual recognition score: Bitter ([1]; Subject 3, dilution 2) | Individual recognition score: Sour ([1]; Subject 4, dilution 2)
33%: Level of Recognition %: Sour ([1]; dilution 2)
3: Individual recognition score: Neutral ([1]; Subject 1, dilution 1) | Individual recognition score: Neutral ([1]; Subject 2, dilution 2) | Individual recognition score: Neutral ([1]; Subject 3, dilution 1) | Individual recognition score: Bitter ([1]; Subject 4, dilution 1)
1: Individual recognition score: Bitter ([1]; Subject 1, dilution 1) | Individual recognition score: Sour ([1]; Subject 1, dilution 1) | Individual recognition score: Sweet ([1]; Subject 1, dilution 1) | Individual recognition score: Bitter ([1]; Subject 1, dilution 2) | Individual recognition score: Sour ([1]; Subject 1, dilution 2) | Individual recognition score: Sweet ([1]; Subject 2, dilution 1) | Individual recognition score: Sweet ([1]; Subject 2, dilution 2) | Individual recognition score: Sour ([1]; Subject 3, dilution 1) | Individual recognition score: Neutral ([1]; Subject 3, dilution 2) | Individual recognition score: Sour ([1]; Subject 3, dilution 2) | Individual recognition score: Sour ([1]; Subject 4, dilution 1) | Individual recognition score: Bitter ([1]; Subject 4, dilution 2) | Individual recognition score: Neutral ([1]; Subject 4, dilution 2)
1.2±1.5: intensity score ([2]; concentration 1)
0%: Level of Recognition %: Salty ([1]; dilution 1) | Level of Recognition %: Salty ([1]; dilution 2) | Level of Recognition %: Bitter ([1]; dilution 3) | Level of Recognition %: Neutral ([1]; dilution 3) | Level of Recognition %: Salty ([1]; dilution 3) | Level of Recognition %: Sweet ([1]; dilution 3) | Level of Recognition %: Bitter ([1]; dilution 4) | Level of Recognition %: Neutral ([1]; dilution 4) | Level of Recognition %: Salty ([1]; dilution 4) | Level of Recognition %: Sweet ([1]; dilution 4)
8%: Level of Recognition %: Sweet ([1]; dilution 1)
1.0±1.0: intensity score ([2]; concentration 2)
54%: Level of Recognition %: Neutral ([1]; dilution 1)
38%: Level of Recognition %: Neutral ([1]; dilution 2)
4%: Level of Recognition %: Sweet ([1]; dilution 2)
5: Individual recognition score: Neutral ([1]; Subject 2, dilution 1)
